# Reference: patent US7144891B2, “Benzo[b ]pyrano[3,2- h ]acridin-7-one cinnamate compounds” (Les Laboratoires Servier, priority 2004, dated 2006)
# Assays:
# [1] = tested on: C38 adenocarcinoma of the colon; assay: In vivo anti-tumour activity with respect to C38 adenocarcinoma of the colon; details: i.v. once per week for 3 weeks (days 10, 17, 24), s.c. C38 tumour in B6D2F1 mice
# Protocol: Anti-tumour Activity with Respect to C38 Adenocarcinoma of the Colon
# Tumour fragments of C38 adenocarcinoma of the colon weighing approximately 30 mg were implanted under the skin of B6D2F1 mice (Iffa Credo, France) on day 0.
# After growth of the tumour, the mice were divided into control (18 animals) and treated (6 or 7 animals) groups, which were homogeneous with respect to tumour size. The products were administered by the i.v. route once per week for 3 weeks (on days 10, 17 and 24), at their Maximum Tolerated Dose (MTD), MTD/2 and MTD/4.
# The tumours were measured twice a week and the tumour volumes were calculated according to the following formula: volume (mm^3)=length (mm)×breadth (mm^2)/2. The anti-tumour activity is expressed as % T/C: […]
# V0 and Vt being the initial volume of the tumour and its volume at measurement time t, respectively.
# The optimum dose is the dose giving the lowest T/C value without toxicity (early death or weight loss greater than 20%).
# [2] = general statement, limits bioavailability and i.v. use; cited from earlier work
# [3] = tested on: KB-3-1 human epidermoid carcinoma cells; assay: In vitro cytotoxicity, Microculture Tetrazolium Assay, KB-3-1; assay type: cell-based; details: KB-3-1, 4 days incubation; read-out: IC50 (concentration of cytotoxic agent which inhibits proliferation of the treated cells by 50%)
# Protocol: (§1) Two cell lines were used • 1 murine leukaemia: L1210, • 1 human epidermoid carcinoma: KB-3-1
# (§2) The cells are cultured in RPMI 1640 complete culture medium containing 10% foetal calf serum, 2 mM glutamine, 50 units/ml of penicillin, 50 μg/ml of streptomycin and 10 mM Hepes, pH=7.4. The cells are distributed on microplates and are exposed to the cytotoxic compounds. The cells are then incubated for 2 days (L1210) or 4 days (KB-3-1). The number of viable cells is then quantified by a colorimetric assay, the Microculture Tetrazolium Assay (Cancer Res. 1987, 47, 939–942).
# (§3) The results are expressed in terms of the IC50 (the concentration of cytotoxic agent which inhibits proliferation of the treated cells by 50%).
# [4] = tested on: L1210 murine leukaemia cells; assay: In vitro cytotoxicity, Microculture Tetrazolium Assay, L1210; assay type: cell-based; details: L1210, 2 days incubation; read-out: IC50 (concentration of cytotoxic agent which inhibits proliferation of the treated cells by 50%)
# Protocol: as §1, §2, §3
smiles,measurement,setting,value
"COc1cc2c(c3c1c(=O)c1ccccc1n3C)C=CC(C)(C)O2 [acronycine, reference compound]",anti-tumour activity (% T/C),[1]; optimum dose of 100 mg/kg,27%
same,solubility,[2],low
"COc1cc2c(c3c1c(=O)c1cc4ccccc4cc1n3C)[C@@H](OC(C)=O)[C@@H](OC(=O)C=Cc1ccccc1)C(C)(C)O2 (racemic) [Example 2, (±)-cis-1-Acetoxy-2-cinnamoyloxy-6-methoxy-3,3,14-trimethyl-1,2,3,14-tetrahydro-1H-benzo[b]pyrano[3,2-h]acridin-7-one]",IC50,[3],151 nM
same,IC50,[4],590 nM
"COc1cc2c(c3c1c(=O)c1cc4ccccc4cc1n3C)[C@@H](OC(C)=O)[C@@H](OC(=O)C=Cc1ccc(Cl)c(Cl)c1)C(C)(C)O2 (single isomer, unassigned) [Example 33, (±)-cis-1-Acetoxy-2-(3,4-dichlorocinnamoyloxy)-6-methoxy-3,3,14-trimethyl-1,2,3,14-tetrahydro-1H-benzo[b]pyrano[3,2-h]acridin-7-one (Enantiomer β)]",anti-tumour activity (% T/C),[1]; optimum dose of 4 mg/kg,50%
